These compounds were tested on Phakopsora pachyrhizi (triazole tolerant soybean rust strain) (assay: Phakopsora pachyrhizi on soybean, preventive treatment). Conditions: foliar, 264 h, 1 day preventive, leaf discs evaluated 11 days after application, compared to untreated control, read-out: disease control.
Format: in vivo
Description: Phakopsora pachyrhizi on Soybean, Preventive Treatment
The compound or mixture composition activity was tested under 1 day preventive conditions. Soybean plants with a fully enfolded first trifoliate leaf were sprayed with a track sprayer and 50 l/ha spray volume with the test compounds or mixture composition, either solo or in tankmix as shown in the table below.
1 day after application leaf discs were cut from the first trifoliate leaf and placed in multiwell plates on water-agar. 5 leaf discs per treatment where infested with spores of a triazole tolerant soybean rust strain. The multiwell plates where sealed and placed in an incubator 48 h in darkness and 12 h light/dark cycle afterwards. Rust infestation on leaf discs was evaluated visually 11 days after application and average activity calculated in relation to disease severity on untreated check leaf discs.
Work on `CCCOC[C@H](C)Oc1nc(C)c(/N=C/N(C)CC)cc1Br` [Compound 67.002, N′-[5-bromo-2-methyl-6-[(1S)-1-methyl-2-propoxy-ethoxy]-3-pyridyl]-N-ethyl-N-methyl-formamidine] yielded a pest or weed control at 200 ppm of at least 80%.

What follows are compounds tested on Blumeria graminis f. Sp. Tritici (Erysiphe qraminis f. Sp. Tritici) (assay: Blumeria graminis f. sp. tritici / wheat / leaf disc preventative (powdery mildew on wheat)). Conditions: foliar, wheat leaf disks cv. Kanzler, inoculated 1 day after application, compared to untreated control, read-out: disease control.
Format: in vivo
Description: Blumeria graminis f. Sp. Tritici (Erysiphe qraminis f. Sp. Tritici)/Wheat/Leaf Disc Preventative (Powdery Mildew on Wheat)
Wheat leaf segments cv. Kanzler were placed on agar in a multiwell plate (24-well format) and sprayed with the formulated test compound or mixture composition diluted in water. The leaf disks were inoculated by shaking powdery mildew infected plants above the test plates 1 day after application. The inoculated leaf disks were incubated at 20° C. and 60% rh under a light regime of 24 h darkness followed by 12 h light/12 h darkness in a climate chamber and the activity of a compound or mixture composition was assessed as percent disease control compared to untreated when an appropriate level of disease damage appears on untreated check leaf segments (6-8 days after application).
In the case of `CCCOC[C@H](C)Oc1nc(C)c(/N=C/N(C)CC)cc1Br` [Compound 67.002, N′-[5-bromo-2-methyl-6-[(1S)-1-methyl-2-propoxy-ethoxy]-3-pyridyl]-N-ethyl-N-methyl-formamidine], the pest or weed control at 200 ppm is reported as at least 80%.

Each compound was assayed on Puccinia recondita f. sp. tritici (assay: Puccinia recondita f. sp. tritici / wheat / leaf disc preventative (brown rust)). Conditions: foliar, wheat leaf disks cv. Kanzler, inoculated 1 day after application, compared to untreated control, read-out: disease control.
Format: in vivo
Description: Puccinia recondita f. sp. tritici/wheat/leaf disc preventative (brown rust)
Wheat leaf segments cv. Kanzler were placed on agar in multiwell plates (24-well format) and sprayed with the formulated test compound or mixture composition diluted in water. The leaf disks were inoculated with a spore suspension of the fungus 1 day after application. The inoculated leaf segments were incubated at 19° C. and 75% rh under a light regime of 12 h light/12 h darkness in a climate cabinet and the activity of a compound or mixture composition was assessed as percent disease control compared to untreated when an appropriate level of disease damage appears in untreated check leaf segments (7-9 days after application).
For `CCCOC[C@H](C)Oc1nc(C)c(/N=C/N(C)CC)cc1Br` [Compound 67.002, N′-[5-bromo-2-methyl-6-[(1S)-1-methyl-2-propoxy-ethoxy]-3-pyridyl]-N-ethyl-N-methyl-formamidine], the pest or weed control at 200 ppm was at least 80%.

Each compound was assayed on Puccinia recondita f. sp. tritici (assay: Puccinia recondita f. sp. tritici / wheat / leaf disc curative (brown rust)). Conditions: foliar, 24 h, wheat leaf disks cv. Kanzler, applied 1 day after inoculation (curative), compared to untreated control, read-out: disease control.
Format: in vivo
Description: Puccinia recondita f. Sp. Tritici/Wheat/Leaf Disc Curative (Brown Rust)
Wheat leaf segments cv. Kanzler are placed on agar in multiwell plates (24-well format). The leaf segments are inoculated with a spore suspension of the fungus. Plates were stored in darkness at 19° C. and 75% rh. The formulated test compound or mixture composition diluted in water was applied 1 day after inoculation. The leaf segments were incubated at 19° C. and 75% rh under a light regime of 12 h light/12 h darkness in a climate cabinet and the activity of a compound or mixture composition was assessed as percent disease control compared to untreated when an appropriate level of disease damage appears in untreated check leaf segments (6-8 days after application).
Work on `CCCOC[C@H](C)Oc1nc(C)c(/N=C/N(C)CC)cc1Br` [Compound 67.002, N′-[5-bromo-2-methyl-6-[(1S)-1-methyl-2-propoxy-ethoxy]-3-pyridyl]-N-ethyl-N-methyl-formamidine] yielded a pest or weed control at 200 ppm of at least 80%. `CCCOC[C@@H](C)Oc1nc(C)c(/N=C/N(C)CC)cc1Br` [Compound 67.003, N′-[5-bromo-2-methyl-6-[(1R)-1-methyl-2-propoxy-ethoxy]-3-pyridyl]-N-ethyl-N-methyl-formamidine] showed a pest or weed control at 200 ppm of at least 80%. `CCCOCC(C)Oc1nc(C)c(/N=C/N(C)CC)cc1C#N` (stereo not shown) [Compound 67.007, N′-[5-cyano-2-methyl-6-(1-methyl-2-propoxy-ethoxy)-3-pyridyl]-N-ethyl-N-methyl-formamidine] was tested, and the pest or weed control at 200 ppm was at least 80%. `CCCOCC(C)Oc1nc(C)c(/N=C/N(C)CC)cc1C(F)F` (stereo not shown) [Compound 67.009, N′-[5-(difluoromethyl)-2-methyl-6-(1-methyl-2-propoxy-ethoxy)-3-pyridyl]-N-ethyl-N-methyl-formamidine] was tested, and the pest or weed control at 200 ppm was at least 80%. Work on `CCCOCC(C)Oc1nc(C)c(/N=C/N(C)CC)cc1OC(F)F` (stereo not shown) [Compound 67.010] yielded a pest or weed control at 200 ppm of at least 80%. In the case of `CCCOCC(C)Oc1nc(C)c(/N=C/N(C)CC)cc1C` (stereo not shown) [Compound 67.011, N′-[2,5-dimethyl-6-(1-methyl-2-propoxy-ethoxy)-3-pyridyl]-N-ethyl-N-methyl-formamidine], the pest or weed control at 200 ppm is reported as at least 80%. Work on `CCCOCC(C)Oc1ccc(/N=C/N(C)CC)c(C)n1` (stereo not shown) [Compound 67.012] yielded a pest or weed control at 200 ppm of at least 80%. With `CCCOCC(C)Oc1nc(C)c(/N=C/N(C)CC)cc1Br` (stereo not shown) [Compound 67.013, N′-[5-bromo-2-methyl-6-(1-methyl-2-propoxy-ethoxy)-3-pyridyl]-N-ethyl-N-methyl-formamidine] the pest or weed control at 200 ppm was at least 80%. With `C=CCOCC(C)Oc1nc(C)c(/N=C/N(C)CC)cc1Cl` (stereo not shown) [Compound 67.014, N′-[6-(2-allyloxy-1-methyl-ethoxy)-5-chloro-2-methyl-3-pyridyl]-N-ethyl-N-methyl-formamidine] the pest or weed control at 200 ppm was at least 80%. `CCCOCC(C)Oc1nc(C)c(/N=C/N(C)CC)cc1Cl` (stereo not shown) [Compound 67.015, N′-[5-chloro-2-methyl-6-(1-methyl-2-propoxy-ethoxy)-3-pyridyl]-N-ethyl-N-methyl-formamidine] was tested, and the pest or weed control at 200 ppm was at least 80%. `C=CCOCC(COC)Oc1nc(C)c(/N=C/N(C)CC)cc1Br` (stereo not shown) [Compound 67.016] was tested, and the pest or weed control at 200 ppm was at least 80%. Compound `C=CCOCC(C)Oc1nc(C)c(/N=C/N(C)CC)cc1C#N` (stereo not shown) [Compound 67.017] has a pest or weed control at 200 ppm of at least 80%. `CCCOCC(C)Oc1nc(C)c(/N=C/N(C)C(C)C)cc1Br` (stereo not shown) [Compound 67.018, N′-[5-bromo-2-methyl-6-(1-methyl-2-propoxy-ethoxy)-3-pyridyl]-N-isopropyl-N-methyl-formamidine] gave a pest or weed control at 200 ppm of at least 80%. `CCN(C)/C=N/c1cc(C#N)c(OC(C)COc2cccc(C(F)(F)F)c2)nc1C` (stereo not shown) [Compound 67.020] showed a pest or weed control at 200 ppm of at least 80%. `CCN(C)/C=N/c1cc(C#N)c(OC(C)COc2ccc(Cl)cc2)nc1C` (stereo not shown) [Compound 67.021] showed a pest or weed control at 200 ppm of at least 80%. `CCN(C)/C=N/c1cc(C#N)c(OC(C)COc2ccccc2)nc1C` (stereo not shown) [Compound 67.022] gave a pest or weed control at 200 ppm of at least 80%. Work on `CCN(C)/C=N/c1cc(Cl)c(OC(C)COc2cccc(C(F)(F)F)c2)nc1C` (stereo not shown) [Compound 67.023] yielded a pest or weed control at 200 ppm of at least 80%. Compound `CCN(C)/C=N/c1cc(Cl)c(OC(C)COc2ccc(Cl)cc2)nc1C` (stereo not shown) [Compound 67.024] has a pest or weed control at 200 ppm of at least 80%. `CCN(C)/C=N/c1cc(Cl)c(OC(C)COc2ccccc2)nc1C` (stereo not shown) [Compound 67.025] showed a pest or weed control at 200 ppm of at least 80%. `CCN(C)/C=N/c1cc(Br)c(OC(C)COc2ccc(Cl)cc2)nc1C` (stereo not shown) [Compound 67.026] showed a pest or weed control at 200 ppm of at least 80%. In the case of `CCN(C)/C=N/c1cc(Br)c(OC(C)COc2cccc(C(F)(F)F)c2)nc1C` (stereo not shown) [Compound 67.027], the pest or weed control at 200 ppm is reported as at least 80%. For `CCN(C)/C=N/c1cc(Br)c(OC(C)COc2ccccc2)nc1C` (stereo not shown) [Compound 67.028], the pest or weed control at 200 ppm was at least 80%.

— US10631539B2, “Fungicidal compositions” (SYNGENTA PARTICIPATIONS AG, priority 2015, dated 2020)
